From US20240368169A1 (priority 2021, published 2024) come the findings set out here.

For orientation: IC50 means the concentration that gives 50% inhibition. A low value points to greater potency.

The test system of this assay is MDA-MB-436 cells. The experiment in a line: Growth inhibition assay against BRCA mutant human breast cancer MDA-MB-436 cell line (CCK-8, 7 days). Format: cell-based.

`CNC(=O)c1ccc(N2CCN(Cc3cc4[nH]c(=O)c5ccnn5c4cc3F)CC2)c(C)n1` [Example 93, 7-((4-(2-methyl-6-(methylcarbamoyl)pyridin-3-yl)piperazin-1-yl)methyl)-8-fluoropyrazolo[1,5-a]quinoxalin-4(5H)-one] came in with an IC50 of 5.68 nM.
In turn, `CNC(=O)c1ccc(N2CCN(Cc3cc(F)c4c(c3)[nH]c(=O)n3ccnc43)CC2)c(C)n1` [Example 96, 8-((4-(2-methyl-6-(methylcarbamoyl)pyridin-3-yl)piperazin-1-yl)methyl)-10-fluoroimidazo[1,2-c]quinazolin-5(6H)-one] had an IC50 of 1.93 nM.
`CNC(=O)c1ccc(N2CCN(Cc3cc(Cl)c4c(c3)[nH]c(=O)c3ccnn34)CC2)c(C)n1` [Example 46, 7-((4-(2-methyl-6-(methylcarbamoyl)pyridin-3-yl)piperazin-1-yl)methyl)-9-chloropyrazolo[1,5-a]quinoxalin-4(5H)-one] yielded an IC50 of 2.27 nM.
`CNC(=O)c1ccc(N2CCN(Cc3ccc4c5c(c(=O)[nH]c4c3)CCC5)CC2)c(C)n1` [Example 17, 7-((4-(2-methyl-6-(methylcarbamoyl)pyridin-3-yl)piperazin-1-yl)methyl)-1,2,3,5-tetrahydro-4H-cyclopenta[c]quinolin-4-one] came in with an IC50 of 2.59 nM.
As for `Cc1nc(C(=O)NC2CC2)ccc1N1CCN(Cc2cc(F)c3c4c(c(=O)[nH]c3c2)CCC4)CC1` [Example 81, 7-((4-(2-methyl-6-(cyclopropylcarbamoyl)pyridin-3-yl)piperazin-1-yl)methyl)-9-fluoro-1,2,3,5-tetrahydro-4H-cyclopenta[c]quinolin-4-one], the midpoint of inhibition, the IC50, lay at 4.67 nM.
As for `CNC(=O)c1ccc(N2CCN(Cc3cc(F)c4c(c3)[nH]c(=O)c3ccnn34)CC2)c(C)n1` [Example 43, 7-((4-(2-methyl-6-(methylcarbamoyl)pyridin-3-yl)piperazin-1-yl)methyl)-9-fluoropyrazolo[1,5-a]quinoxalin-4(5H)-one], the IC50 is 1.2 nM.
`CNC(=O)c1ccc(N2CCN(Cc3ccc4c(c3)[nH]c(=O)c3cccn34)CC2)c(F)n1` [Example 34, 7-((4-(2-fluoro-6-(methylcarbamoyl)pyridin-3-yl)piperazin-1-yl)methyl)pyrrolo[1,2-a]quinoxalin-4(5H)-one] displayed an IC50 of 0.75 nM.
The same measure for `O=C(NC1CC1)c1ccc(N2CCN(Cc3cc(F)c4c5c(c(=O)[nH]c4c3)CCC5)CC2)c(F)n1` [Example 82, 7-((4-(2-fluoro-6-(cyclopropylcarbamoyl)pyridin-3-yl)piperazin-1-yl)methyl)-9-fluoro-1,2,3,5-tetrahydro-4H-cyclopenta[c]quinolin-4-one]: 3.66 nM; for `CNC(=O)c1ccc(N2CCN(Cc3ccc4c(c3)[nH]c(=O)c3cccn34)CC2)cn1` [Example 65, 7-((4-(6-(methylcarbamoyl)pyridin-3-yl)piperazin-1-yl)methyl)pyrrolo[1,2-a]quinoxalin-4(5H)-one]: 1.12 nM; for `CCNC(=O)c1ccc(N2CCN(Cc3ccc4c5c(c(=O)[nH]c4c3)CCC5)CC2)c(C)n1` [Example 49, 7-((4-(2-methyl-6-(ethylcarbamoyl)pyridin-3-yl)piperazin-1-yl)methyl)-1,2,3,5-tetrahydro-4H-cyclopenta[c]quinolin-4-one]: 2.18 nM.
As for `CNC(=O)c1ccc(N2CCN(Cc3cc(F)c4c(c3)[nH]c(=O)c3cccn34)CC2)c(Cl)n1` [Example 42, 7-((4-(2-chloro-6-(methylcarbamoyl)pyridin-3-yl)piperazin-1-yl)methyl)-9-fluoropyrrolo[1,2-a]quinoxalin-4(5H)-one], the IC50 worked out at 0.93 nM. Compared with the last compound, the IC50 is about 2.3-fold lower.
Compound `CCNC(=O)c1ccc(N2CCN(Cc3ccc4c5c(c(=O)[nH]c4c3)CCC5)CC2)c(Cl)n1` [Example 50, 7-((4-(2-chloro-6-(ethylcarbamoyl)pyridin-3-yl)piperazin-1-yl)methyl)-1,2,3,5-tetrahydro-4H-cyclopenta[c]quinolin-4-one] yielded an IC50 of 5.7 nM.
Consider `O=C(NC1CC1)c1ccc(N2CCN(Cc3ccc4c(c3)[nH]c(=O)c3cccn34)CC2)c(F)n1` [Example 60, 7-((4-(2-fluoro-6-(cyclopropylcarbamoyl)pyridin-3-yl)piperazin-1-yl)methyl)pyrrolo[1,2-a]quinoxalin-4(5H)-one], for which half-maximal inhibition (IC50) required 0.63 nM. This IC50 lies about 9-fold lower than the previous one.
On to `CNC(=O)c1ccc(N2CCN(Cc3cc(F)c4c5c(c(=O)[nH]c4c3)CCC5)CC2)c(C)n1` [Example 79, 7-((4-(2-methyl-6-(methylcarbamoyl)pyridin-3-yl)piperazin-1-yl)methyl)-9-fluoro-1,2,3,5-tetrahydro-4H-cyclopenta[c]quinolin-4-one], for which the IC50 is 1.04 nM.
In turn, `CNC(=O)c1ccc(N2CCN(Cc3cc(F)c4c(c3)[nH]c(=O)c3cc(C)nn34)CC2)c(C)n1` [Example 75, 7-((4-(2-methyl-6-(methylcarbamoyl)pyridin-3-yl)piperazin-1-yl)methyl)-9-fluoro-2-methylpyrazolo[1,5-a]quinoxalin-4(5H)-one] gave an IC50 of 3.31 nM.
As to `CNC(=O)c1ccc(N2CCN(Cc3ccc4c(c3)[nH]c(=O)n3nccc43)CC2)c(C)n1` [Example 118, 8-((4-(2-methyl-6-(methylcarbamoyl)pyridin-3-yl)piperazin-1-yl)methyl)pyrazolo[1,5-c]quinazolin-5(6H)-one], the IC50 worked out at 10.7 nM.
Compound `CNC(=O)c1ccc(N2CCN(Cc3cc(Cl)c4c(c3)[nH]c(=O)c3ccnn34)CC2)c(F)n1` [Example 47, 7-((4-(2-fluoro-6-(methylcarbamoyl)pyridin-3-yl)piperazin-1-yl)methyl)-9-chloropyrazolo[1,5-a]quinoxalin-4(5H)-one] returned an IC50 of 2.6 nM.
The figure for `CNC(=O)c1ccc(N2CCN(Cc3ccc4c(c3)[nH]c(=O)c3cncn34)CC2)c(C)n1` [Example 26, 7-((4-(2-methyl-6-(methylcarbamoyl)pyridin-3-yl)piperazin-1-yl)methyl)imidazo[1,5-a]quinoxalin-4(5H)-one] is 23.9 nM; for `Cc1nc(C(=O)NC2CC2)ccc1N1CCN(Cc2ccc3c4c(c(=O)[nH]c3c2)COC4)CC1` [Example 63, 7-((4-(2-methyl-6-(cyclopropylcarbamoyl)pyridin-3-yl)piperazin-1-yl)methyl)-3,5-dihydrofuro[3,4-c]quinolin-4(1H)-one] it is 3.32 nM.
The same measure for `CNC(=O)c1ccc(N2CCN(Cc3ccc4c(c3)[nH]c(=O)c3cncn34)CC2)c(Cl)n1` [Example 39, 7-((4-(2-chloro-6-(methylcarbamoyl)pyridin-3-yl)piperazin-1-yl)methyl)imidazo[1,5-a]quinoxalin-4(5H)-one]: 3.56 nM.
`CNC(=O)c1ccc(N2CCN(Cc3ccc4c(c3)[nH]c(=O)c3ncnn34)CC2)c(C)n1` [Example 29, 7-((4-(2-methyl-6-(methylcarbamoyl)pyridin-3-yl)piperazin-1-yl)methyl)-[1,2,4]triazolo[1,5-a]quinoxalin-4(5H)-one] had an IC50 of 28.2 nM.
Compound `CNC(=O)c1ccc(N2CCN(Cc3ccc4c(c3)[nH]c(=O)c3c(Cl)cnn34)CC2)c(F)n1` [Example 99, 7-((4-(2-fluoro-6-(methylcarbamoyl)pyridin-3-yl)piperazin-1-yl)methyl)-3-chloropyrazolo[1,5-a]quinoxalin-4(5H)-one] yielded an IC50 of 0.54 nM.
